# According to the supplement of paper PMC10733146:
# Key:
# Assay in all cases: viability relative to DMSO control (fraction); higher = less drug effect (more viable cells)
# Settings in all cases: 48 h
# [1] = system: primary AML patient cells (S071)
# Procedure, shortened: (§1)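 In 384-well plates with compounds pre-plated at five concentrations (one well per concentration), primary mononuclear tumour cells were plated at 4 × 10^4 cells per well. The cells came from blood or bone marrow by Ficoll isolation or from processed lymph node, and were used fresh or cryopreserved. Culture ran for 48 h at 37 °C and 5% CO2 in RPMI-1640 containing penicillin/streptomycin, L-glutamine and human serum. Viability was read as CellTiter-Glo luminescence, normalised to the median of 16 inner DMSO wells.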
# [2] = system: primary AML patient cells (S081)
# Procedure, shortened: as §1
# [3] = system: primary AML patient cells (S037)
# Procedure, shortened: as §1
# [4] = system: primary AML patient cells (S072)
# Procedure, shortened: as §1
# [5] = system: primary AML patient cells (S002)
# Procedure, shortened: as §1
# [6] = system: primary MCL patient cells (S068)
# Procedure, shortened: as §1
# [7] = system: primary AML patient cells (S091)
# Procedure, shortened: as §1
# [8] = system: primary AML patient cells (S055)
# Procedure, shortened: as §1
# [9] = system: primary MCL patient cells (S053)
# Procedure, shortened: as §1
# [10] = system: primary AML patient cells (S017)
# Procedure, shortened: as §1
# [11] = system: primary AML patient cells (S025)
# Procedure, shortened: as §1
# [12] = system: primary AML patient cells (S060)
# Procedure, shortened: as §1
# [13] = system: primary AML patient cells (S021)
# Procedure, shortened: as §1
# [14] = system: primary T-PLL patient cells (S008)
# Procedure, shortened: as §1
# [15] = system: primary B-PLL patient cells (S016)
# Procedure, shortened: as §1
# [16] = system: primary AML patient cells (S089)
# Procedure, shortened: as §1
# [17] = system: primary BL patient cells (S005)
# Procedure, shortened: as §1
# [18] = system: primary AML patient cells (S009)
# Procedure, shortened: as §1
# [19] = system: primary CLL patient cells (S043)
# Procedure, shortened: as §1
# [20] = system: primary DLBCL patient cells (S082)
# Procedure, shortened: as §1
compound,measurement,setting,value
O=C(c1cc(Cc2n[nH]c(=O)c3ccccc23)ccc1F)N1CCN(C(=O)C2CC2)CC1 [Olaparib],viability,[1]; 0.024 µM,0.974
same,viability,[1]; 0.12 µM,1.01
same,viability,[1]; 0.6 µM,1.02
same,viability,[1]; 3 µM,0.917
same,viability,[1]; 15 µM,0.806
same,viability,[2]; 0.024 µM,0.818
same,viability,[2]; 0.12 µM,0.858
same,viability,[2]; 0.6 µM,0.889
same,viability,[2]; 3 µM,0.884
same,viability,[2]; 15 µM,0.894
same,viability,[3]; 0.024 µM,0.853
same,viability,[3]; 0.12 µM,0.895
same,viability,[3]; 0.6 µM,0.915
same,viability,[3]; 3 µM,0.859
same,viability,[3]; 15 µM,0.776
same,viability,[4]; 0.024 µM,0.829
same,viability,[4]; 0.12 µM,0.891
same,viability,[4]; 0.6 µM,0.914
same,viability,[4]; 3 µM,0.885
same,viability,[4]; 15 µM,0.852
same,viability,[5]; 0.024 µM,0.804
same,viability,[5]; 0.12 µM,1.05
same,viability,[5]; 0.6 µM,0.935
same,viability,[5]; 3 µM,0.804
same,viability,[5]; 15 µM,0.748
same,viability,[6]; 0.024 µM,0.896
same,viability,[6]; 0.12 µM,0.838
same,viability,[6]; 0.6 µM,0.714
same,viability,[6]; 3 µM,0.78
same,viability,[6]; 15 µM,0.585
same,viability,[7]; 0.024 µM,0.857
same,viability,[7]; 0.12 µM,0.796
same,viability,[7]; 0.6 µM,0.883
same,viability,[7]; 3 µM,0.862
same,viability,[7]; 15 µM,0.691
same,viability,[8]; 0.024 µM,0.937
same,viability,[8]; 0.12 µM,0.899
same,viability,[8]; 0.6 µM,0.91
same,viability,[8]; 3 µM,0.965
same,viability,[8]; 15 µM,0.919
same,viability,[9]; 0.024 µM,0.801
same,viability,[9]; 0.12 µM,0.863
same,viability,[9]; 0.6 µM,0.834
same,viability,[9]; 3 µM,0.685
same,viability,[9]; 15 µM,0.643
same,viability,[10]; 0.024 µM,0.796
same,viability,[10]; 0.12 µM,0.917
same,viability,[10]; 0.6 µM,0.931
same,viability,[10]; 3 µM,0.94
same,viability,[10]; 15 µM,0.914
same,viability,[11]; 0.024 µM,0.995
same,viability,[11]; 0.12 µM,0.973
same,viability,[11]; 0.6 µM,0.95
same,viability,[11]; 3 µM,1.01
same,viability,[11]; 15 µM,0.861
same,viability,[12]; 0.024 µM,0.947
same,viability,[12]; 0.12 µM,0.926
same,viability,[12]; 0.6 µM,0.979
same,viability,[12]; 3 µM,0.973
same,viability,[12]; 15 µM,0.987
same,viability,[13]; 0.024 µM,0.878
same,viability,[13]; 0.12 µM,0.846
same,viability,[13]; 0.6 µM,0.895
same,viability,[13]; 3 µM,0.938
same,viability,[13]; 15 µM,0.797
same,viability,[14]; 0.024 µM,0.945
same,viability,[14]; 0.12 µM,0.962
same,viability,[14]; 0.6 µM,0.957
same,viability,[14]; 3 µM,0.978
same,viability,[14]; 15 µM,0.94
same,viability,[15]; 0.024 µM,0.86
same,viability,[15]; 0.12 µM,0.871
same,viability,[15]; 0.6 µM,0.872
same,viability,[15]; 3 µM,0.8
same,viability,[15]; 15 µM,0.722
same,viability,[16]; 0.024 µM,0.959
same,viability,[16]; 0.12 µM,0.82
same,viability,[16]; 0.6 µM,0.883
same,viability,[16]; 3 µM,0.63
same,viability,[16]; 15 µM,0.814
same,viability,[17]; 0.024 µM,0.938
same,viability,[17]; 0.12 µM,0.985
same,viability,[17]; 0.6 µM,0.977
same,viability,[17]; 3 µM,0.904
same,viability,[17]; 15 µM,0.878
same,viability,[18]; 0.024 µM,0.977
same,viability,[18]; 0.12 µM,0.987
same,viability,[18]; 0.6 µM,1.02
same,viability,[18]; 3 µM,0.93
same,viability,[18]; 15 µM,0.958
same,viability,[19]; 0.024 µM,0.797
same,viability,[19]; 0.12 µM,0.814
same,viability,[19]; 0.6 µM,0.835
same,viability,[19]; 3 µM,0.867
same,viability,[19]; 15 µM,0.825
same,viability,[20]; 0.024 µM,0.835
same,viability,[20]; 0.12 µM,0.887
same,viability,[20]; 0.6 µM,0.878
same,viability,[20]; 3 µM,0.817
same,viability,[20]; 15 µM,0.718
